Laboratory results as given in patent publication US20260294915A1, “COMBINATION THERAPY COMPRISING A MAT2A INHIBITOR AND A TOPOISOMERASE INHIBITOR, A SPLICING INHIBITOR SULFONAMIDE, OR A KIF18 INHIBITOR” (IDEAYA BIOSCIENCES, INC., priority 2023, published 2026).

How the values were obtained:
Type in all cases: cell-based
RT112/84 = assay: 10-day proliferation (CTG), equimolar Compound A + Compound B (Example 1); details: Homo sapiens, RT112/84, 240 h, 10 days, single agent or 1:1 combo; for IC30: read-out: gIC30; for IC40: read-out: gIC40; for IC50: read-out: gIC50; for IC60: read-out: gIC60; for IC70: read-out: gIC70; for IC80: read-out: gIC80; for IC90: read-out: gIC90; for IC100: read-out: gIC100
Experimental: (§1) A 10-day proliferation assay was performed in a panel of 5 MTAP-deficient and 2 wild type non-small cell lung and bladder cancer cell lines. Optimal cell seeding for all cell lines was determined by assessing the growth over a range of seeding densities in a 384-well format to identify conditions that permitted proliferation for 10 days. Cells were then plated at the optimal seeding density and treated with 20-point, two-fold dilution series of Compound A, sovilnesib (“Compound B”), or an equimolar combination of Compound A and Compound B. Concentrations tested for Compound A and Compound B alone or in combination ranged from 0.038 nM to 20,000 nM. A plate of cells was harvested at the time of compound addition to quantify the number of cells at the start of the combination (T0). For cell quantification, the harvested cells were lysed with Promega CellTiter-Glo (CTG) reagent according to the manufacturer's protocol and the chemiluminescent signal was detected on a Synergy Neo plate reader. CTG estimates cell number through detection of cellular ATP levels. Cells were incubated with the drug combinations at 37° C. with 5% CO2 for 10 days. Cells were then lysed with CTG and the chemiluminescent signal was measured.
(§2) CTG values obtained after the 10-day treatment were background subtracted and expressed as a percent of the T0 value. Data were plotted against compound concentration and fit with a four-parameter equation to generate dose response curves for each single agent and the equimolar combination. Growth ICx (gICx) values ranging from gIC30 to gIC100 were interpolated from the fitted curves. Synergistic growth inhibition was assessed by determination of Combination Index (CI) values at these various points across the titration using the mutually non-exclusive equation [Chou, 1983; Chou, 1981] shown below where A equals the gIC value of Compound A, B equals the gICx value of Compound B, and A+B or B+A equals the gICx value of the equimolar combination. A Combination Index value less than 1.0 was considered synergistic.
(§3) Synergy was measured for equimolar combinations of Compound A and Compound B utilizing the mutually non-exclusive Combination Index equation across gICx values ranging from gIC30-gIC100. Combination Index values are shown for: NCI-H838 (3A), SW900 (3B), RT112/84 (3C), UMUC5 (3D), and UMUC11 (3E).

NCI-H838 = assay: as above; details: Homo sapiens, NCI-H838, 240 h, 10 days, single agent or 1:1 combo; for IC30: read-out: gIC30; for IC40: read-out: gIC40; for IC50: read-out: gIC50; for IC60: read-out: gIC60; for IC70: read-out: gIC70; for IC80: read-out: gIC80; for IC90: read-out: gIC90; for IC100: read-out: gIC100
Experimental: as §1, §2, §3

UMUC11 [1] = assay: as above; details: 240 h, 10 days, single agent or 1:1 combo; for IC30: read-out: gIC30; for IC40: read-out: gIC40; for IC50: read-out: gIC50; for IC60: read-out: gIC60; for IC70: read-out: gIC70; for IC80: read-out: gIC80; for IC90: read-out: gIC90; for IC100: read-out: gIC100
Experimental: as §1, §2, §3

SW900 = assay: 10-day proliferation (CTG), Compound B titration + 1000 nM Compound A, Bliss (Example 2); design: key: GDI, -100 to 100; 0 = cell number at T0
Experimental: (§4) A 10-day proliferation assay was performed in a panel of 5 MTAP-deficient and 2 wild type non-small cell lung and bladder cancer cell lines. Optimal cell seeding for all cell lines was determined by assessing the growth over a range of seeding densities in a 384-well format to identify conditions that permitted proliferation for 10 days. Cells were then plated at the optimal seeding density and treated with 20-point, two-fold dilution series of Compound B in combination with a 1000 nM fixed concentration of Compound A. Single agent titrations for Compound A and Compound B were included for comparison. Concentrations tested for Compound A and Compound B alone or in combination ranged from 0.038 nM to 20,000 nM. A plate of cells was harvested at the time of compound addition to quantify the number of cells at the start of the combination (T0). For cell quantification, the harvested cells were lysed with Promega CellTiter-Glo (CTG) reagent according to the manufacturer's protocol and the chemiluminescent signal was detected as described in Example 1 above. Cells were incubated with the drug combinations at 37° C. with 5% CO2 for 10 days. Cells were then lysed with CTG and the chemiluminescent signal was measured.
(§5) CTG values obtained after the 10-day treatment were background subtracted and expressed as a percent of the T0 value set at 100%. Data were plotted against compound concentration and fit with a four-parameter equation to generate single agent dose response curves. Percent inhibition was determined for each combination and single agent concentration compared to a DMSO control. In addition, the overall net growth or death of the cells was calculated and reported as a growth death index (GDI) value on a scale of −100 to 100 with the midpoint (0) being the number of cells at the beginning of the combination (T0).
(§6) Predicted inhibition was calculated using (Ea+Eb)−(Ea*Eb) where E equals the effect (inhibition) of each single agent (a and b). A difference between the observed inhibition percentage and the predicted inhibition percentage greater than 10% was considered synergistic. A Bliss score was only calculated for combinations eliciting >20% growth inhibition (GDI value <80). Since Bliss is calculated based on growth inhibition, scores within cytotoxic dose ranges may not accurately reflect synergistic cytotoxicity.
(§7) Synergy was measured across the Compound B titration with 1000 nM Compound A by Bliss Independence analysis. Bliss scores >10 are indicated by “*” and are considered synergistic. […] Synergy as reported using Bliss may be underrepresented within cytotoxic dose ranges. Growth death index values are shown for the combination titration and each single agent Compound A (Cmpd A) and Compound B (Cmpd B) on a scale of −100 to 100 with the midpoint (0) being the number of cells at the beginning of the combination (T0).

UMUC11 [2] = assay: as above; design: key: GDI, -100 to 100; 0 = cell number at T0
Experimental: as §4, §5, §6, §7

[3] = Cmpd B 0.04 nM, combo: + 1000 nM Cmpd A
[4] = Cmpd B 0.1 nM, combo: + 1000 nM Cmpd A
[5] = Cmpd B 0.2 nM, combo: + 1000 nM Cmpd A
[6] = Cmpd B 0.3 nM, combo: + 1000 nM Cmpd A
[7] = Cmpd B 0.6 nM, combo: + 1000 nM Cmpd A
[8] = Cmpd B 1.2 nM, combo: + 1000 nM Cmpd A
[9] = Cmpd B 2.4 nM, combo: + 1000 nM Cmpd A
[10] = Cmpd B 4.9 nM, combo: + 1000 nM Cmpd A
[11] = Cmpd B 9.8 nM, combo: + 1000 nM Cmpd A
[12] = Cmpd B 19.5 nM, combo: + 1000 nM Cmpd A
[13] = Cmpd B 39.1 nM, combo: + 1000 nM Cmpd A
[14] = Cmpd B 78.1 nM, combo: + 1000 nM Cmpd A
[15] = Cmpd B 156.3 nM, combo: + 1000 nM Cmpd A
[16] = Cmpd B 312.5 nM, combo: + 1000 nM Cmpd A
[17] = Cmpd B 625 nM, combo: + 1000 nM Cmpd A
[18] = Cmpd B 1250 nM, combo: + 1000 nM Cmpd A
[19] = Cmpd B 2500 nM, combo: + 1000 nM Cmpd A
[20] = Cmpd B 5000 nM, combo: + 1000 nM Cmpd A
[21] = Cmpd B 10000 nM, combo: + 1000 nM Cmpd A
[22] = Cmpd B 20000 nM, combo: + 1000 nM Cmpd A

`Nc1nc(=O)n(-c2ccccc2Cl)c2nc(C(F)(F)F)ccc12` [Compound A] showed an IC30 (RT112/84) of 0.277 µM, an IC40 (RT112/84) of 0.854 µM and an IC50 (RT112/84) of 3 µM. For the same compound, the IC60 (RT112/84) was 16 µM, the IC70 (RT112/84) was 20 µM and the IC80 (RT112/84) was 20 µM. The IC90 (RT112/84) was 20 µM, the IC100 (RT112/84) was 20 µM and the IC30 (NCI-H838) was 0.052 µM. For the same compound, the IC40 (NCI-H838) was 0.09 µM, the IC50 (NCI-H838) was 0.208 µM and the IC60 (NCI-H838) was 20 µM. For the same compound, the IC70 (NCI-H838) was 20 µM, the IC80 (NCI-H838) was 20 µM and the IC90 (NCI-H838) was 20 µM. The IC100 (NCI-H838) was 20 µM, the IC30 (UMUC11 [1]) was 20 µM and the IC40 (UMUC11 [1]) was 20 µM. It also gave an IC50 (UMUC11 [1]) of 20 µM, an IC60 (UMUC11 [1]) of 20 µM and an IC70 (UMUC11 [1]) of 20 µM. For the same compound, the IC80 (UMUC11 [1]) was 20 µM, the IC90 (UMUC11 [1]) was 20 µM and the IC100 (UMUC11 [1]) was 20 µM. The GDI (SW900; single agent, 1000 nM Cmpd A) was 99 and the GDI (UMUC11 [2]; single agent, 1000 nM Cmpd A) was 92.
`Cc1cc(NC(=O)c2ccc(NS(=O)(=O)CCO)cc2N2CCC3(CC2)CC3)nc(N2CCC(F)(F)CC2)n1` [Compound B, N-(2-(4,4-difluoropiperidin-1-yl)-6-methylpyrimidin-4-yl)-4-((2-hydroxyethyl)sulfonamido)-2-(6-azaspiro[2.5]octan-6-yl)benzamide] gave an IC30 (RT112/84) of 0.15 µM, an IC40 (RT112/84) of 0.17 µM and an IC50 (RT112/84) of 0.192 µM. For the same compound, the IC60 (RT112/84) was 0.222 µM, the IC70 (RT112/84) was 0.273 µM and the IC80 (RT112/84) was 10.3 µM. It also gave an IC90 (RT112/84) of 20 µM, an IC100 (RT112/84) of 20 µM and an IC30 (NCI-H838) of 0.735 µM. The IC40 (NCI-H838) was 1.48 µM, the IC50 (NCI-H838) was 12.5 µM and the IC60 (NCI-H838) was 14.3 µM. For the same compound, the IC70 (NCI-H838) was 17 µM, the IC80 (NCI-H838) was 20 µM and the IC90 (NCI-H838) was 20 µM. For the same compound, the IC100 (NCI-H838) was 20 µM, the IC30 (UMUC11 [1]) was 2.2 µM and the IC40 (UMUC11 [1]) was 3.48 µM. It also gave an IC50 (UMUC11 [1]) of 5.17 µM, an IC60 (UMUC11 [1]) of 7.3 µM and an IC70 (UMUC11 [1]) of 9.95 µM. For the same compound, the IC80 (UMUC11 [1]) was 13.2 µM, the IC90 (UMUC11 [1]) was 17.1 µM and the IC100 (UMUC11 [1]) was 20 µM. For the same compound, the GDI (SW900; [3]) was 100, the GDI (SW900; [4]) was 100 and the GDI (SW900; [5]) was 100. For the same compound, the GDI (SW900; [6]) was 100, the GDI (SW900; [7]) was 100 and the GDI (SW900; [8]) was 100. For the same compound, the GDI (SW900; [9]) was 99, the GDI (SW900; [10]) was 100 and the GDI (SW900; [11]) was 100. It also gave a GDI (SW900; [12]) of 100, a GDI (SW900; [13]) of 99 and a GDI (SW900; [14]) of 100. It also gave a GDI (SW900; [15]) of 100, a GDI (SW900; [16]) of 100 and a GDI (SW900; [17]) of 86. For the same compound, the GDI (SW900; [18]) was 89, the GDI (SW900; [19]) was 83 and the GDI (SW900; [20]) was 75. The GDI (SW900; [21]) was 64, the GDI (SW900; [22]) was 28 and the GDI (UMUC11 [2]; [3]) was 100. The GDI (UMUC11 [2]; [4]) was 100, the GDI (UMUC11 [2]; [5]) was 100 and the GDI (UMUC11 [2]; [6]) was 100. For the same compound, the GDI (UMUC11 [2]; [7]) was 100, the GDI (UMUC11 [2]; [8]) was 100 and the GDI (UMUC11 [2]; [9]) was 100. The GDI (UMUC11 [2]; [10]) was 100, the GDI (UMUC11 [2]; [11]) was 100 and the GDI (UMUC11 [2]; [12]) was 100. It also gave a GDI (UMUC11 [2]; [13]) of 100, a GDI (UMUC11 [2]; [14]) of 100 and a GDI (UMUC11 [2]; [15]) of 100. For the same compound, the GDI (UMUC11 [2]; [16]) was 87, the GDI (UMUC11 [2]; [17]) was 72 and the GDI (UMUC11 [2]; [18]) was 70. It also gave a GDI (UMUC11 [2]; [19]) of 74, a GDI (UMUC11 [2]; [20]) of 63 and a GDI (UMUC11 [2]; [21]) of 32. It also gave a GDI (UMUC11 [2]; [22]) of −88.
